Converted amounts (≈) assume the structure as drawn.
How the values were obtained:
[1] = test system: Staphylococcus aureus; assay: Antibacterial activity against methicillin-susceptible and beta-lactamase-producing Staphylococcus aureus Type B using 5x10^7 CFU/ml high inoculum after 24 hrs by CLSI broth microdilution method; type: functional
[2] = test system: Staphylococcus aureus; assay: Antibacterial activity against methicillin-susceptible and beta-lactamase-producing Staphylococcus aureus Type C using 5x10^5 CFU/ml standard inoculum after 24 hrs by CLSI broth microdilution method; type: functional
[3] = test system: Staphylococcus aureus; assay: Antibacterial activity against methicillin-susceptible and beta-lactamase-producing Staphylococcus aureus Type B using 5x10^5 CFU/ml standard inoculum after 24 hrs by CLSI broth microdilution method; type: functional
[4] = test system: Staphylococcus aureus; assay: Antibacterial activity against methicillin-susceptible and beta-lactamase-negative Staphylococcus aureus ATCC 25923 using 5x10^5 CFU/ml standard inoculum after 24 hrs by CLSI broth microdilution method; type: functional; conditions: ATCC 25923, 24 h
[5] = test system: Staphylococcus aureus; assay: Antibacterial activity against methicillin-susceptible and beta-lactamase-negative Staphylococcus aureus using 5x10^5 CFU/ml standard inoculum after 24 hrs by CLSI broth microdilution method
[6] = test system: Staphylococcus aureus; assay: Antibacterial activity against methicillin-susceptible and beta-lactamase-producing Staphylococcus aureus Type C using 5x10^7 CFU/ml high inoculum after 24 hrs by CLSI broth microdilution method; type: functional
[7] = test system: Staphylococcus aureus; assay: Antibacterial activity against methicillin-susceptible and beta-lactamase-negative Staphylococcus aureus ATCC 25923 using 5x10^7 CFU/ml high inoculum after 24 hrs by CLSI broth microdilution method; type: functional; conditions: ATCC 25923, 24 h
[8] = test system: Staphylococcus aureus; assay: Antibacterial activity against methicillin-susceptible and beta-lactamase-producing Staphylococcus aureus Type A TX01117 using 5x10^5 CFU/ml standard inoculum after 24 hrs by CLSI broth microdilution method; type: functional; conditions: Type A TX01117, 24 h
[9] = test system: Staphylococcus aureus; assay: Antibacterial activity against methicillin-susceptible and beta-lactamase-producing Staphylococcus aureus Type A TX01117 using 5x10^7 CFU/ml high inoculum after 24 hrs by CLSI broth microdilution method; type: functional; conditions: Type A TX01117, 24 h

How did the MIC [1] turn out when `Cn1nnnc1SCC1=C(C(=O)O)N2C(=O)[C@@H](NC(=O)[C@H](O)c3ccccc3)[C@H]2SC1` [CEFAMANDOLE] was run?
Its MIC is 13.6 µg/mL (≈ 29.4 µM).

And the MIC50 [1]?
The MIC50 was 8 µg/mL (≈ 17.3 µM).

And the MIC90 [1]?
The MIC90 was 64 µg/mL (≈ 138 µM).

What about the MIC50 [2] of the same compound?
The MIC50 was 2 µg/mL (≈ 4.32 µM).

And the MIC90 [2]?
The MIC90 was 4 µg/mL (≈ 8.65 µM).

What about the MIC [3] of the same compound?
Its MIC is 1.3 µg/mL (≈ 2.81 µM).

And the MIC50 [3]?
The MIC50 was 1 µg/mL (≈ 2.16 µM).

What about the MIC90 [3] of the same compound?
Its MIC90 is 4 µg/mL (≈ 8.65 µM).

And the MIC [4]?
Its MIC is 0.6 µg/mL (≈ 1.3 µM).

And the MIC90 [4]?
Its MIC90 is 1 µg/mL (≈ 2.16 µM).

What about the MIC50 [5] of the same compound?
The MIC50 was 1 µg/mL (≈ 2.16 µM).

And the MIC [6]?
Its MIC is 32 µg/mL (≈ 69.2 µM).

And the MIC50 [6]?
The MIC50 was 16 µg/mL (≈ 34.6 µM).

What about the MIC90 [6] of the same compound?
Its MIC90 is 32 µg/mL (≈ 69.2 µM).

What about the MIC [7] of the same compound?
The MIC was 0.4 µg/mL (≈ 0.865 µM).

And the MIC50 [7]?
The MIC50 was 1 µg/mL (≈ 2.16 µM).

And the MIC90 [7]?
Its MIC90 is 1 µg/mL (≈ 2.16 µM).

What about the MIC [8] of the same compound?
Its MIC is 0.5 µg/mL (≈ 1.08 µM).

And the MIC50 [8]?
Its MIC50 is 1 µg/mL (≈ 2.16 µM).

What about the MIC90 [8] of the same compound?
Its MIC90 is 2 µg/mL (≈ 4.32 µM).

What about the MIC [9] of the same compound?
The MIC was 8 µg/mL (≈ 17.3 µM).

And the MIC50 [9]?
The MIC50 was 4 µg/mL (≈ 8.65 µM).

What about the MIC90 [9] of the same compound?
Its MIC90 is 32 µg/mL (≈ 69.2 µM).

Reference: ChEMBL document CHEMBL1649557 (Antimicrob Agents Chemother, 2009)
